{"source": "patent US20200338158A1", "about": "“Therapeutic Drug for Non-Alcoholic Fatty Liver Disease” (Shanghai Hep Pharmaceutical Co., Ltd., priority 2017, published 2020)", "type_in_all_cases": "in vivo", "key": {"C57BL6 mice [1]": {"test_system": "C57BL6 mice", "assay": "Liver weight and gross liver observation, mouse NASH model (high fat feed + high sugar water)", "from_the_text": "(§1) In this example, a mouse nonalcoholic steatohepatitis (NASH) model was used to evaluate the effect of hepalatide (L47) on pathological changes and metabolism level of NASH, and to determine whether L47 can improve the pathological changes of NASH, so as to provide reference for pharmacodynamic evaluation of L47 before clinical treatment.\n(§2) 4.1.2 Model group (HFC-F/G): high fat feed+high sugar water, 9 mice in total, wherein 3 mice were sacrificed at week 8, and 6 mice were sacrificed at week 16.\n(§3) 4.1.3 Low dose group 1 (HFC-F/G+HL1): high fat feed+high sugar water+L47 20 mg/kg (10 mg/kg*2/d, i.e. once in the morning and once in the afternoon), 10 mice in total, wherein 3 mice were sacrificed at week 8, and 7 mice were sacrificed at week 16.\n(§4) 4.1.4 High dose group 1 (HFC-F/G+HH1): high fat feed+high sugar water+L47 60 mg/kg (30 mg/kg*2/d, i.e. once in the morning and once in the afternoon), 10 mice in total, wherein 3 mice were sacrificed at week 8, and 7 mice were sacrificed at week 16.\n(§5) 4.1.5 Low dose group 2 (HFC-F/G+HL2): high fat feed+high sugar water+L47 20 mg/kg (10 mg/kg*2/d, i.e. once in the morning and once in the afternoon, with pharmacologic intervention started 8 weeks after initiation of the experiment), 5 mice in total, which are sacrificed after 16 weeks.\n(§6) 4.1.6 High dose group 2 (HFC-F/G+HH2): high fat feed+high sugar water+L47 60 mg/kg (30 mg/kg*2/d, i.e. once in the morning and once in the afternoon, with pharmacologic intervention started 8 weeks after initiation of the experiment), 5 mice in total, which are sacrificed after 16 weeks.\n(§7) Route of administration: subcutaneous injection.\nAt week 8 and week 16, liver was separated by dissection after anesthesia and blood collection, and pathological changes of liver tissues and accumulation of abdominal fat were grossly observed by the naked eye."}, "C57BL6 mice [2]": {"test_system": "C57BL6 mice", "assay": "Quantitative CT of body fat deposition, mouse NASH model", "conditions": "week 16; for subcutaneous fat (CT): vs model group", "from_the_text": "as §1\nQuantitative CT was used to locate and quantify subcutaneous, visceral and brown fat in mice at week 16."}, "C57BL6 mice [3]": {"test_system": "C57BL6 mice", "assay": "Glucose tolerance, fasting insulin and insulin resistance index, mouse NASH model", "conditions": "for blood glucose level in glucose tolerance test: treatment groups vs model group; for fasting serum insulin level / insulin resistance HOMA-RI level: vs model group", "from_the_text": "As used herein, homeostatic model assessment (HOMA) index may refer HOMA-IR (quantifying the level of insulin resistance) index. The value of HOMA-IR can be calculated by following the formula of: HOMA-IR=[(blood glucose expressed in mmol/L)×(serum insulin expressed in mU/L)]/22.5.\nas §1\n5.2.3 Insulin ELISA Test Kit, Cat No.: EZRMI-13K, Millipore Company.\nAt week 8 and week 16, fasting blood glucose and glucose tolerance (subcutaneous injection of glucose: 2.5 mg/g, preparation concentration: 250 mg/ml) were measured in mice, blood glucose levels were measured at 0, 30, 60, 90 and 120 min after the injection of glucose, and insulin resistance index was calculated according to the fasting insulin level."}, "C57BL6 mice [4]": {"test_system": "C57BL6 mice", "assay": "Mouse NASH model, overall conclusions at week 8 and week 16", "from_the_text": "as §1\n4.1.1 Normal control group (Control): common block feed+common water, 14 mice in total, wherein 6 mice were sacrificed at week 8, and 8 mice were sacrificed at week 16.\nas §2, §3, §4, §5, §6\nThe concentration of L47 in low dose group was 5 mg/ml; the concentration of L47 in high dose group was 10 mg/ml.\nas §7"}, "[5]": {"conditions": "treatment groups vs model group"}, "[6]": {"conditions": "week 16, HL2 (L47 10 mg/kg*2/d s.c., started after 8 weeks)"}, "[7]": {"conditions": "overall conclusion, week 8 and week 16"}, "[8]": {"conditions": "overall conclusion, effect better as dose and administration duration increased"}, "[9]": {"conditions": "overall conclusion, in a short period of time, dose-dependent"}}, "note": "Entries after “also recorded” stand apart in the source; their conditions may differ.", "data": [{"substance": "hepalatide [L47]", "values": [{"measurement": "general observation of liver change (color, weight)", "setting": "C57BL6 mice [1]; treatment groups vs model group, week 8 implied", "value": "improved"}, {"measurement": "liver weight", "setting": "C57BL6 mice [1]; week 8, each group (HL1, HH1)", "value": "no significant difference"}, {"measurement": "general observation of liver change (color, weight)", "setting": "C57BL6 mice [1]; week 16, low dose group 2 and high dose group 2 vs model group", "value": "liver colors tended to be normal"}, {"measurement": "liver weight", "setting": "C57BL6 mice [1]; week 16, vs model group, HL2 (L47 10 mg/kg*2/d s.c., started after 8 weeks), p<0.05", "value": "decreased significantly"}, {"measurement": "subcutaneous fat (quantitative body fat on CT scan)", "setting": "C57BL6 mice [2]; L47 treatment groups vs model group (conclusions)", "value": "decreased significantly"}, {"measurement": "brown fat (CT)", "setting": "C57BL6 mice [2]; [5]", "value": "no significant difference"}, {"measurement": "visceral fat (CT)", "setting": "C57BL6 mice [2]; [5]", "value": "no significant difference; also recorded: no significant effect"}, {"measurement": "subcutaneous fat (CT)", "setting": "C57BL6 mice [2]; HH1 (L47 30 mg/kg*2/d s.c. from start)", "value": "decreased"}, {"measurement": "subcutaneous fat (CT)", "setting": "C57BL6 mice [2]; HH2 (L47 30 mg/kg*2/d s.c., started after 8 weeks)", "value": "decreased"}, {"measurement": "subcutaneous fat (CT)", "setting": "C57BL6 mice [2]; HL2 (L47 10 mg/kg*2/d s.c., started after 8 weeks)", "value": "decreased"}, {"measurement": "blood glucose level in glucose tolerance test", "setting": "C57BL6 mice [3]; week 8, 90 min after glucose, p<0.05, p<0.01", "value": "significantly decreased"}, {"measurement": "blood glucose level in glucose tolerance test", "setting": "C57BL6 mice [3]; week 8, 120 min after glucose, p<0.01", "value": "significantly decreased"}, {"measurement": "blood glucose level in glucose tolerance test", "setting": "C57BL6 mice [3]; week 16, 90 min after glucose", "value": "decreasing trend"}, {"measurement": "blood glucose level in glucose tolerance test", "setting": "C57BL6 mice [3]; week 16, 120 min after glucose", "value": "decreasing trend"}, {"measurement": "blood glucose", "setting": "C57BL6 mice [3]; week 16, treatment groups vs model group (conclusions)", "value": "decreased"}, {"measurement": "fasting serum insulin level", "setting": "C57BL6 mice [3]; week 16, HH1 (L47 30 mg/kg*2/d s.c. from start), p<0.001", "value": "significantly decreases"}, {"measurement": "insulin resistance HOMA-RI level", "setting": "C57BL6 mice [3]; week 16, HH1 (L47 30 mg/kg*2/d s.c. from start), p<0.05", "value": "significantly decreases"}, {"measurement": "insulin resistance HOMA-RI level", "setting": "C57BL6 mice [3]; week 16, HH2 (L47 30 mg/kg*2/d s.c., started after 8 weeks)", "value": "decreasing trend"}, {"measurement": "fasting serum insulin level", "setting": "C57BL6 mice [3]; week 16, HH2 (L47 30 mg/kg*2/d s.c., started after 8 weeks), p<0.001", "value": "significantly decreases"}, {"measurement": "fasting serum insulin level", "setting": "C57BL6 mice [3]; week 16, HL1 (L47 10 mg/kg*2/d s.c. from start), p<0.001", "value": "significantly decreases"}, {"measurement": "insulin resistance HOMA-RI level", "setting": "C57BL6 mice [3]; week 16, HL1 (L47 10 mg/kg*2/d s.c. from start), p<0.05", "value": "significantly decreases"}, {"measurement": "fasting serum insulin level", "setting": "C57BL6 mice [3]; [6]", "value": "decreasing trend"}, {"measurement": "insulin resistance HOMA-RI level", "setting": "C57BL6 mice [3]; [6]", "value": "no significant difference"}, {"measurement": "levels of ALB, HDL and LDL", "setting": "C57BL6 mice [4]; [7]", "value": "reduce"}, {"measurement": "levels of VLDL and ALP", "setting": "C57BL6 mice [4]; [7]", "value": "no effect"}, {"measurement": "blood glucose and insulin level", "setting": "C57BL6 mice [4]; [8]", "value": "effectively reduce"}, {"measurement": "insulin resistance", "setting": "C57BL6 mice [4]; [8]", "value": "improve"}, {"measurement": "apoptosis (liver)", "setting": "C57BL6 mice [4]; [9]", "value": "improve"}, {"measurement": "fibrosis degree of liver", "setting": "C57BL6 mice [4]; [9]", "value": "effectively reduce"}, {"measurement": "levels of ALT and AST", "setting": "C57BL6 mice [4]; [9]", "value": "effectively reduce"}, {"measurement": "subcutaneous fat, liver fat and serum fat deposition", "setting": "C57BL6 mice [4]; overall conclusion, in a short period of time, dose-dependent, improvement reduced as treatment duration extended", "value": "effectively reduce"}, {"measurement": "liver fat accumulation, liver cell damage, insulin resistance and liver fibrosis", "setting": "C57BL6 mice [4]; short-term (8 weeks) co-administration or delayed administration, to various degrees", "value": "improve"}]}]}
